Assay results as given in BindingDB's records for doi:10.1016/j.bmcl.2005.03.024 (Johnson & Johnson Pharmaceutical, 2005).

Each compound was assayed against Cyclin-dependent kinase/G2/mitotic-specific cyclin- 1 (Homo sapiens, UniProt P06493) (assay: Kinase Inhibition Assay). Conditions: not given.
Procedure: The enzyme was assayed with a biotinylated peptide substrate and test compounds in the presence of 10 uM ATP/[gamma-33P]ATP in a streptavidin coated FlashPlate (Perkin-Elmer, Boston, MA). Inhibition of the enzymatic activity due to the compound was measured by observing a reduced amount of 33P-gamma-ATP incorporated into the immobilized peptide relative to untreated controls. Linear regression analysis of the percent of inhibition by the test compound was used to calculate IC50 values.

Chain of Cyclin-dependent kinase/G2/mitotic-specific cyclin- 1 (P06493 whole entry): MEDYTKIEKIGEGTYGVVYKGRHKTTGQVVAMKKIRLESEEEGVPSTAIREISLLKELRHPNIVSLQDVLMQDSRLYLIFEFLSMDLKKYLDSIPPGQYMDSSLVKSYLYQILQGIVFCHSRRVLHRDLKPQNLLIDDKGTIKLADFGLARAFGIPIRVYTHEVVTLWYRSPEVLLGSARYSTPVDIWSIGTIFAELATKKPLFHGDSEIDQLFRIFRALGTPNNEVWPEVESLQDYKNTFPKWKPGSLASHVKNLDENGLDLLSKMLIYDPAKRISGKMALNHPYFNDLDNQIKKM
Chain of Cyclin-dependent kinase/G2/mitotic-specific cyclin- 1 (P14635 whole entry, further chain): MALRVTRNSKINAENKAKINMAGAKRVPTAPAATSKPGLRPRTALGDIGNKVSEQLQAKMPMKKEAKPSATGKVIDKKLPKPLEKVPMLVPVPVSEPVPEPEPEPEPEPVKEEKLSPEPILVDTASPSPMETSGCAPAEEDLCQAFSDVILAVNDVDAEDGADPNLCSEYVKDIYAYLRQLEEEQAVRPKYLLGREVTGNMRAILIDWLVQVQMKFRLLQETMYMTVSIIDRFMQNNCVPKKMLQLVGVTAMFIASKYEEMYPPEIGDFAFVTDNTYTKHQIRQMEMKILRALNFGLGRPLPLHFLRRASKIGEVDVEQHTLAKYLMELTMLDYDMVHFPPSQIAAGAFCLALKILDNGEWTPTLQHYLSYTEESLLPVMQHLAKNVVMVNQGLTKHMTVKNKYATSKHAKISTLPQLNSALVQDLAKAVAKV

IC50 [µM] | Compound
> 100 | Nc1ccc(C(=O)c2cccs2)c(N)n1 [3-(thiophen-2-ylcarbonyl)pyridine-2,6-diamine]
> 100 | CCN(CC)S(=O)(=O)c1ccc(Nc2ccc(C(=O)c3ccccc3)c(N)n2)cc1 [4-[(6-amino-5-benzoylpyridin-2-yl)amino]-N,N-diethylbenzene-1-sulfonamide]
> 10 | Nc1nc(Nc2ccc(S(=O)(=O)N(Cc3ccccc3)Cc3ccccc3)cc2)ccc1C(=O)c1c(F)cccc1F [4-({6-amino-5-[(2,6-difluorophenyl)carbonyl]pyridin-2-yl}amino)-N,N-dibenzylbenzene-1-sulfonamide]
> 100 | CCN(CC)S(=O)(=O)c1ccc(Nc2ccc(C(=O)c3ccco3)c(N)n2)cc1 [4-{[6-amino-5-(furan-2-ylcarbonyl)pyridin-2-yl]amino}-N,N-diethylbenzene-1-sulfonamide]
> 100 | Nc1ccc(C(=O)c2ccco2)c(N)n1 [3-(furan-2-ylcarbonyl)pyridine-2,6-diamine]

Same assay, conditions: pH 8; 30 °C

IC50 [µM] | Compound
> 100 | CC(=O)Nc1ccccc1Nc1ccc(C(=O)c2c(F)cccc2F)c(N)n1 [N-[2-({6-amino-5-[(2,6-difluorophenyl)carbonyl]pyridin-2-yl}amino)phenyl]acetamide]
> 100 | Nc1nc(Nc2ccccc2NC(=O)c2ccccc2)ccc1C(=O)c1c(F)cccc1F [N-[2-({6-amino-5-[(2,6-difluorophenyl)carbonyl]pyridin-2-yl}amino)phenyl]benzamide]
> 10 | Nc1nc(Nc2ccccc2[N+](=O)[O-])ccc1C(=O)c1c(F)cccc1F [5-[(2,6-difluorophenyl)carbonyl]-2-N-(2-nitrophenyl)pyridine-2,6-diamine]
> 100 | Nc1nc(Nc2ccccc2NS(=O)(=O)c2ccccc2)ccc1C(=O)c1c(F)cccc1F [N-[2-({6-amino-5-[(2,6-difluorophenyl)carbonyl]pyridin-2-yl}amino)phenyl]benzenesulfonamide]
